The text below walks through data of a melting point compilation (Tetko et al.; mined from patent text by program, amines drawn as free bases though some values may be those of a salt).

Some results are limits rather than exact numbers.

The term melting point denotes the temperature, or range, at which the solid turns liquid. `COc1cc(OC)nc(Nc2ccc(C)cc2[N+](=O)[O-])n1` came in with a melting point of 158 to 161 °C. The molecule `O=C1C2=C(SCCO2)C(=O)N1c1ccc2ccc(Cl)nc2n1` registered a melting point of 264 °C. Molecule `CC1(C)[C@H](Cc2noc(C(F)(F)F)n2)CC[C@]1(C)NCC(=O)N1C[C@@H](F)C[C@H]1C#N` registered a melting point of 130 to 131 °C. As for `CCCc1[nH]c(C(=O)OCC)c(CCC)c1C`, the figure is 78 to 80 °C; as for `CCN(CC)C(=O)n1ccc(S(=O)(=O)c2ccc(Cl)cc2Cl)n1`, 85 to 86 °C. `CCOc1nc(NCc2ccco2)nc(Nc2ccc3[nH]c(C(F)(F)F)nc3c2)n1` returned a melting point of 188 to 190 °C. `CON1CCC(=Cc2nc(C(C)(C)C)c(O)c(C(C)(C)C)n2)C1=O` had a melting point of 184 to 186 °C. As for `CCCCCCCCCCCCCCCCNc1ccc(O)c2c1C(=O)c1c(N)ccc(N)c1C2=O`, the figure is 174 °C.

With `COc1cc(OC)c2c3c(C(N)=O)cccc3n(Cc3ccccc3)c2c1`, the melting point was 240 to 243 °C.

In turn, `CC1Oc2c(C(=O)[NH+]([O-])C3CN4CCC3CC4)cc(Cl)cc2N(C)C1=O` (stereo unspecified) gave a melting point of 188 to 190 °C. As to `CN(Cc1ccc2c(Br)c(OCc3nnn[nH]3)ccc2c1)C(=O)c1cn(Cc2ccccc2)c2ccccc12`, the melting point was 197 to 198 °C. As for `COc1ccc(Oc2nc(Oc3ccc(OC)c(F)c3)nc(Oc3ccc(OC)c(F)c3)n2)cc1F`, the figure is above 210 °C; as for `CCN(C(C)=O)c1ccc(OC23CCC(CC2)CC3)cc1`, 99 to 101 °C. As for `CCOC(=O)Cc1ccc(C(=O)Cl)n1C`, the figure is 52 to 54 °C; as for `O=C1CCC(Cc2ccc3ccccc3c2)=C1O`, 120 to 122 °C. As for `COc1cc(COc2nc(-c3ccccc3)ncc2C(=O)O)ccc1OCc1nc(-c2ccco2)oc1C`, the figure is 163 to 164 °C; as for `CNC(=N[N+](=O)[O-])N(Cc1cnc(Cl)s1)C(=O)N(C)C`, 140 °C; as for `NS(=O)(=O)c1cc(C(=O)OCC(=O)NCCO[N+](=O)[O-])c(NCc2ccco2)cc1Cl`, 135 °C. In the case of `COc1ccc2ncc(C#N)c(Nc3ccc4cn[nH]c4c3)c2c1`, the melting point was above 250 °C. As for `CCCC1=C(C#N)C(c2ccccc2C#N)c2c[nH]nc2N1` (stereo unspecified), the figure is 218 °C. As for `Cc1ccccc1CNC[C@@H]1C[C@@H](S)CN1S(=O)(=O)c1ccc2ccccc2c1`, the figure is 122 °C. With `Cc1ccc(C(=O)Nc2ccc(CCc3ccc(O)c(O)c3)cc2)c(O)c1`, the melting point fell in the range of 201 to 202 °C.

In the case of `CN(C)CCN1CCC(O)(c2ccccc2)C(C(O)c2ccccc2)C1` (stereo unspecified), the melting point lay within 157 to 158 °C. In turn, `COc1ccc(-c2ccc3c(N4CCOC[C@@H]4C)nc(N4CCOC[C@@H]4C)nc3n2)cc1CO` came in with a melting point of 202 to 205 °C. `CC(C)c1nn2ccccc2c1C=O` had a melting point of 81 to 81.5 °C.

`Cc1noc(-c2ncn3c2CN(C)C(=O)c2c(Cl)cccc2-3)n1` returned a melting point of 212 to 213 °C. As for `O=c1c(CO)csc2ccc3ccccc3c12`, the figure is 158 to 159 °C; as for `CC(C)(N)c1ccc(-c2nc(Nc3ccc(F)c(F)c3)ncc2C#N)cc1`, 192 °C; as for `Cc1nn(C)c(C)c1C(=O)Nc1cccc2c1C(C)CC2(C)C` (stereo unspecified), 176 °C. Molecule `N#Cc1c(C(F)(F)F)nn(-c2c(Cl)cc(C(F)(F)F)cc2Cl)c1Br` returned a melting point of 85 to 87 °C. As for `Oc1ccccc1CNCCCCCCNCc1ccccc1O`, the figure is 72 to 73 °C; as for `CC(=O)Nc1ccc(-c2cccc(C3=NC(C)(C)Cc4cc(O)c5c(c43)CC(C)(C)O5)c2)cc1`, 185 to 189 °C; as for `O=[N+]([O-])c1ccc(Cc2nc(-c3ccncc3)cs2)cc1`, 140 to 142 °C.

For `CN(C(=S)NC(=O)c1ccccc1)c1ccc(-c2ncn(-c3ccc(OC(F)(F)F)cc3)n2)cc1`, the melting point was 166 to 169 °C. `Cc1cc(F)ccc1-c1cccc(C(=O)Nc2ccc(OCCN3CCOCC3)c3ccccc23)c1` displayed a melting point of 95 to 97 °C.

Consider `O=C(Nc1ccc(F)cc1)c1cn2nc(N3CCN(C(=O)c4ccccc4C(F)(F)F)CC3)ccc2n1`, for which the melting point was 115 to 117 °C. As for `O=S(=O)(c1ccc(Cl)cc1)C1(c2nnnn2Cc2ccccc2)CCCCC1`, the figure is 154 to 155 °C. As for `CS(=O)(=O)c1cc2c(c(C(=O)O)c1)OCCO2`, the melting point was in the range of 247 to 249 °C. With `CC(C)(C)c1ccc2c(Br)c3ccc(C(C)(C)C)cc3c(Br)c2c1`, the melting point was in the range of 150 to 152 °C. For `CN1CCN(C(=O)Oc2ccc(C[C@H](NC(=O)Nc3ccccc3S(=O)(=O)c3ccccc3)C(=O)O)cc2)CC1`, the melting point worked out at 160 °C.

`O=C(O)CC(CC(=O)O)c1ccc(O)cc1`: the melting point lay in the range of 168 to 170 °C. As for `Nc1nc(N)nc(C2CN(C(c3ccccc3)c3ccccc3)C2)n1`, the figure is 126 to 128 °C; as for `CCOC(=O)c1c2ccc(Cl)cc2c(-c2ccccc2)n1CCO`, 114 to 116 °C.

In turn, `CCCCc1nc(C(=O)O)c(C(=O)O)[nH]1` registered a melting point of 261 to 263 °C. `COC(=O)C(C)Oc1cc(Cl)ccc1CO` (stereo unspecified) yielded a melting point of 51 to 52 °C.

In turn, `Oc1ccc(N=Nc2cccc(Cl)c2Cl)c(Cl)c1Cl` had a melting point of 197 to 199 °C.

Turning to `O=C(CCc1cccc2[nH]ccc12)c1ccccc1OCCN1CCCCC1`, the melting point was 78 °C. As for `O=C1N(Cc2ccccn2)c2ccc3ncsc3c2C12COc1cc3c(cc12)OCCO3` (stereo unspecified), the figure is 156 to 158 °C; as for `COc1cc2c(cc1OC)-c1cc(OC)c(OC)cc1C2=Cc1ccnc2ccccc12`, 226 to 228 °C. Regarding `O=c1cc(-c2cccs2)oc2cccc(OCCOc3ccccc3)c12`, the melting point lay in the range of 173 to 174 °C. In turn, `Cc1ncsc1C(C)(O)c1ccoc1` (stereo unspecified) displayed a melting point of 102 to 104 °C.

Consider `CCSC(c1ccc(Cl)cc1)C(C(=O)C(C)(C)C)n1cncn1` (stereo unspecified), for which the melting point was determined as 154 °C. As for `O=C1CC2(CN1)CC(=O)c1cc(F)ccc12` (stereo unspecified), the figure is 198 to 202 °C.

`CC(C)(C)OC(=O)Oc1cc2c(s1)CCN(C(C(=O)C1CC1)c1ccccc1F)C2` (stereo unspecified) displayed a melting point of 98 to 99 °C. As for `Cc1ccc(S(=O)(=O)n2ccc3cccnc32)cc1`, the figure is 136 to 138 °C; as for `O=C(CCCCCCCNC(=O)OCc1ccccc1)Nc1cccc(C(=O)O)c1`, 167 to 168 °C; as for `Cn1cc(C=O)cc1C(=O)OC(C)(C)C`, 92 °C. As for `CC(C)CC=Cc1c(C(C)C)nc(C(C)C)c(CO)c1-c1ccc(F)cc1`, the figure is 48 to 50 °C; as for `CC(C)(C)c1cc2c(c(C(C)(C)C)c1)OC(=O)C2c1ccc2c(c1)-c1ccccc1C2` (stereo unspecified), 140 to 153 °C.

`N#COc1ccc(C2(c3ccc(OC#N)cc3)OC(=O)c3ccccc32)cc1`: the melting point came out at 130 °C. As for `CCc1cn2c(N)c(Cl)cc(C(=O)NCC3CCN(CC4(O)CCOCC4)CC3)c2n1`, the figure is 229 °C; as for `N=C(N)NCCc1ccc(OCCCCC(c2ccccc2)(c2ccccc2)c2ccccc2)cc1`, 119 to 121 °C. As for `CN1CCCC1=NC(=O)Nc1cccc(Cl)c1`, the figure is 135 to 136 °C; as for `COc1ccc(CCN(CC(C)C)S(=O)(=O)N[C@@H](Cc2ccc(NC(=O)c3c(Cl)cncc3Cl)cc2)C(=O)O)cc1OC`, 192 °C; as for `CCCCCCCCCCCCc1ccccc1C(SCCCC(=O)O)C(=O)O` (stereo unspecified), 58 to 59 °C. In turn, `CCOC(=O)CCC1OC(n2cc(CC)c(=O)[nH]c2=O)CC1OC(C)=O` (stereo unspecified) showed a melting point of 137 to 138 °C.

Turning to `Cc1cccc2c(=O)[nH]c(C3CCN(CCO)C3)cc12` (single isomer, unassigned; (-)), the melting point lay within 137 to 139 °C. Molecule `Cc1csc(=S)n1OC(=O)c1ccccc1` had a melting point of 100 to 102 °C. As for `O=C(O)C1(N(Cc2noc(=O)[nH]2)S(=O)(=O)c2ccc(-c3ccc(Cl)cc3)cc2)CC1c1ccccc1` (stereo unspecified), the figure is 168 to 172 °C. In turn, `CC(C)Cn1c(=O)n(C)c(=O)c2c(SCCCO)c(C(=O)c3cccnc3)sc21` gave a melting point of 152 to 155 °C. As for `O=C(O)c1cccc(Oc2ccc(O)cc2)c1`, the melting point fell in the range of 163 to 166 °C. The molecule `O=C(O)c1cc(S(=O)(=O)n2ccc3ccccc32)ccc1Br` registered a melting point of 189 to 191 °C. For `COC(=O)c1ncoc1-c1ccc([N+](=O)[O-])cc1Cl`, the melting point lay in the range of 121 to 122 °C. Turning to `CCOC(=O)c1ccc(NCCCc2ccc(OCc3ccccc3)cc2)cc1`, the melting point was in the range of 98 to 107 °C. As for `CCOC(=O)C(C)(C)c1ccc2c(c1)N(CC(C)N(C)C)c1ccccc1S2` (stereo unspecified), the melting point lay within 107 to 110 °C. As for `COc1ccc(CN(CCN(C)CCN=C(NC#N)NCCSCc2csc(NC(=N)N)n2)c2ccccn2)cc1`, the figure is 56 to 58 °C; as for `CNC(=O)c1cc(Br)cc(I)c1`, 205 °C; as for `Cc1oc(-c2ccccc2)nc1CCOc1ccc(CCC(N)=O)cc1`, 139 to 140 °C. As for `NS(=O)(=O)c1ccc(NN=C2C(=O)Nc3cc(Br)ccc32)cc1`, the figure is above 250 °C; as for `COc1ccc(-c2nn(C)c(=O)c3ccccc23)cc1Cl`, 195 °C; as for `O=C1NC(=O)C2(C=Cc3c(Cl)sc(Cl)c32)N1` (stereo unspecified), 239 to 241 °C. As for `Clc1ccc(OCOCOc2ccc(Cl)cc2)cc1`, the figure is 53.5 to 54 °C.

`Cn1c(C(F)(F)F)cc(=O)n(-c2cc(OS(=O)(=O)Cl)c(Cl)cc2F)c1=O`: the melting point lay within 133 to 135 °C. `CCCCC(=O)Nc1ccc(Cl)c(-n2nc(CCCC)c(Cc3ccc(-c4ccccc4S(=O)(=O)NC(=O)c4ccccc4Cl)cc3)c2C(=O)OCC)c1` registered a melting point above 95 °C. Take `Cc1cc(-c2cccc(C(F)(F)F)c2)nn2c(C)nnc12`: the melting point fell in the range of 196 to 198 °C. As for `Cc1ncn(-c2ccccc2CNC(=O)c2nc3n(c(=O)c2OCc2ccccc2)CCOC3(C)C)n1`, the figure is 213 to 214 °C.
